Legend:
TPH1 = target: T1, TPH1 (Homo sapiens, UniProt P17752); test: TPH1 enzyme inhibition, in vitro screening (BPS Bioscience kit, fluorescence); assay type: biochemical
T1 construct: purchased BPS Bioscience
T1 sequence (P17752 1-444): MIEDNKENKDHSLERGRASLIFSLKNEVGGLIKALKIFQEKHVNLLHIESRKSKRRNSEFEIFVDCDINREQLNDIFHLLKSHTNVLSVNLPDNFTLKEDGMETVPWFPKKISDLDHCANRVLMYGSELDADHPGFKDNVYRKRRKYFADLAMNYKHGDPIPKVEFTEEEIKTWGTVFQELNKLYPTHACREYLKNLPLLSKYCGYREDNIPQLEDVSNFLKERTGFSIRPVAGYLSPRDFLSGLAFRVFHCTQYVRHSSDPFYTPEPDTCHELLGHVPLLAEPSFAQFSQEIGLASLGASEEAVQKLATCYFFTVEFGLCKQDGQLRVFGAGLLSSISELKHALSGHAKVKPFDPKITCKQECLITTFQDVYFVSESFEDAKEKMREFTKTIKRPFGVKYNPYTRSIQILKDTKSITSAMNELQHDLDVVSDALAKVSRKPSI
Description: Consequently, the core structure of thienopyrimidine tyrosine (derivative 6) was selected as the starting point for the synthesis, evaluating the structure-activity relationships (SAR), and optimization of TPH1 inhibitors. […]
In vitro screening was performed as described previously [PMID: 33417443]. Briefly, TPH1 enzyme activity was measured with a commercially available kit (BPS Bioscience). Compounds were dissolved in DMSO (Sigma). Then, 10 μL of the compound was dispensed into a 96-well microplate, and 40 μL of the TPH1 enzyme solution (320 ng enzyme/reaction) was added. Then, 50 μL of the TPH1 reaction solution was added, and the microplate was sealed with aluminum foil. The microplate was immediately cooled to 4 °C, gently shaken, and incubated for 4 h. After a defined time, 10 μL of the TPH1 quench solution was added. Then, the fluorescence was measured with a Flexstation3 microplate reader at 300 nm for excitation and 360 nm for emission. All experiments were performed in triplicate.

[1] = Liver microsomal stability (rat); assay type: in vitro ADME
Description: (§1) For the liver microsomal activity, test compounds were incubated with rat and mouse’s liver microsomes, respectively, at a final concentration of 1 µM, in the presence of an NADPH regeneration system in 0.1 M potassium phosphate buffer (pH 7.4) for […] at 37 °C in shaking incubator. The microsomal reaction was terminated by adding four volumes of ice-cold acetonitrile and then centrifuged at 4000 rpm for 20 min. The supernatant was collected and analyzed by a LC-MS/MS system. The percentage of the parent compound remaining was calculated by comparing peak areas.

[2] = Liver microsomal stability (human); assay type: in vitro ADME; conditions: after 30 min incubation, 1 µM
Description: as §1

CYP2C19 = target: T2, CYP2C19 (Homo sapiens, UniProt P33261); test: CYP inhibition assay (P450-Glo) CYP2C19; assay type: in vitro ADME; conditions: P450-Glo CYP2C19 Screening System (CYP enzyme), read-out: CYP inhibition 2C19
T2 construct: purchased Promega Corp. V9880
T2 sequence (P33261 whole entry): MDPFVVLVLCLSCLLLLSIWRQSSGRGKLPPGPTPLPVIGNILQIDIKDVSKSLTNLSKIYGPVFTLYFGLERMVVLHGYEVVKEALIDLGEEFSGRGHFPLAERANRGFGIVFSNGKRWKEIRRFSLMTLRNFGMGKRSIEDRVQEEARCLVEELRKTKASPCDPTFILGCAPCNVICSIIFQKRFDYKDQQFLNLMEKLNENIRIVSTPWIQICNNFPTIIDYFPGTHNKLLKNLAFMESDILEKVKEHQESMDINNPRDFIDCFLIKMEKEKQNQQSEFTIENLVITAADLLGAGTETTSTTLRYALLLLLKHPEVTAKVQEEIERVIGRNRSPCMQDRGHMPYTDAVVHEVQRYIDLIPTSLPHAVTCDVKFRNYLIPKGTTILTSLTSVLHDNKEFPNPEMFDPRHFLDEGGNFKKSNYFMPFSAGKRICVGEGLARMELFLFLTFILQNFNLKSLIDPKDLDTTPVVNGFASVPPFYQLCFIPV
Text: (§2) Five major screening systems: P450-Glo CYP1A2 Screening System (Catalog# V9770), P450-Glo CYP2C9 Screening System (Catalog# V9790), P450-Glo CYP2C19 (Catalog# V9880), P450-Glo CYP 2D6 (Catalog# V9890), and P450-Glo CYP3A4 (Catalog# V9920) were attained from Promega Corp. (Madison, WI). α-naphthoflavone, sulfaphenazole, amitriptyline, quinidine, and ketoconazole were identified as positive control inhibitors for CYP1A2, CYP2C9, CYP2C19, CYP2D6, and CYP3A4, respectively. The CYP enzyme and substrate were combined in a potassium phosphate (KPO4) buffer and the reaction is initiated by adding an NADPH regenerating system. The volume of the mixture (12.5 μL in a 96-well plate) was combined with an equal volume of test compound solution and positive control inhibitor (12.5 μL added to make the volume 25 μL). The reaction of the NADPH regeneration system was initiated by adding a 2× concentration of NADPH solution. Then an equal volume of luciferin detection reagent was added. The plates were incubated at room temperature for 20 min and the luminescence signal was measured by a microplate reader device.

CYP3A4 = target: T3, CYP3A4 (Homo sapiens, UniProt P08684); test: CYP inhibition assay (P450-Glo) CYP3A4; assay type: in vitro ADME; conditions: P450-Glo CYP3A4 Screening System (CYP enzyme), read-out: CYP inhibition 3A4
T3 construct: purchased Promega Corp. V9920
T3 sequence (P08684 whole entry): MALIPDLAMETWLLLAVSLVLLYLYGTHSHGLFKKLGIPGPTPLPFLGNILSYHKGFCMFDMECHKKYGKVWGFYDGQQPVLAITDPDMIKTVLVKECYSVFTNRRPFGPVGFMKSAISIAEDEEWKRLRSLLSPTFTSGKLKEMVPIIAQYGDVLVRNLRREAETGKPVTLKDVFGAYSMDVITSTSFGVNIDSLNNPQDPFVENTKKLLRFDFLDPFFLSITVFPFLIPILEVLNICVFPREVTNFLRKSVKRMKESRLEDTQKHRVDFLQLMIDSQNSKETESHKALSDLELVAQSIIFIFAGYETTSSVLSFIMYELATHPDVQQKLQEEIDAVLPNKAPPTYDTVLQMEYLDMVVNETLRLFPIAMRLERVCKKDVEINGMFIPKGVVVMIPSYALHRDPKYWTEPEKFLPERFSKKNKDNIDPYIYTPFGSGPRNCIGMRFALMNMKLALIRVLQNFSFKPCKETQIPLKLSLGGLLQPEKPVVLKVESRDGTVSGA
Text: as §2

[3] = Pharmacokinetic study in rats (iv and oral); assay type: in vivo, male SD rats; conditions: SD, rat, plasma, 5 mg/kg
Description: The pharmacokinetic study of 18i was performed using eight-week-old male SD rats (Orient Bio Inc., Seongnam, Korea). 18i and its prodrug 21 (5 mg/kg, 2 mL/kg) were administered via intravenous and oral routes. Blood samples were collected at 0.033, 0.16, 0.5, 1, 2, 4, 6, 8, and 24 h for intravenous injection at 0.15, 0.5, 1, 2, 4, 6, 8, and 24 h for oral dosing after drug administration, and then immediately centrifuged at 10,000× g for 3 min. The plasma concentrations of 18i were determined by LC-MS/MS. The plasma concentration-time profiles and pharmacokientic parameters were analyzed by a non-compartmental method using the nonlinear least-squares regression program WinNonlin 5.3 (Pharsight, Mountain View, CA, USA).
The LC-MS/MS analysis was performed on an Agilent 1200 series (Agilent Technologies, Santa Clara, CA, USA) with an API 4000 linear ion trap triple quadruple mass spectrometer (AB Sciex, CA, USA). The chromatographic separation of the drug was carried out using a kinetex column (100 × 2.1 mm, 3 μm, Phenomenex, CA USA) with a SecurityGuard C18 guard column (4 mm × 2.0 mm i.d., Phenomenex). The flow rate was 300 µL/min with a mobile phase consisting of 0.1% formic acid in water (eluent A) and 0.1% formic acid in acetonitrile (eluent B) by linear gradient condition as follows: starting with 0 to 0.3 min, B: 5%; 0.3 to 2.5 min, B: 5 → 95%; 2.5 to 2.9 min, B: 95%; 2.9 to 3.0 min, B: 95 → 5%, and then re-equilibrated to initial conditions until 3 min. The total run time was 6 min and the injection volume of 5 μL.

IC50 (TPH1): 37 nM
inhibition at 1 µM (TPH1; 1 µM compound): 95%
Liver microsomal stability, remained ([1]; after incubation for 30 min, species not given): 99%
inhibition at 10 µM (CYP2C19): 46.5%
inhibition at 10 µM (CYP3A4): 45.3%
AUC(0-inf) ([3]; male rats, iv, 5 mpk): 1220 ng·h/mL
AUC(0-t) ([3]; male rats, iv, 5 mpk): 1210 ng·h/mL
clearance ([3]; male rats, iv, 5 mpk): 68.2 mL/min/kg
half-life ([3]; male rats, iv, 5 mpk): 1.85 h
Vd ([3]; male rats, iv, 5 mpk, read-out: Vss): 2.16 L/kg
AUC ([3]; male, intravenous, rats, read-out: AUC (text, kind not stated)): 1200 ng·h/mL
SMILES: Cc1ccn(-c2cc(Cl)ccc2[C@@H](Oc2ncnc3c(-c4ccc(C[C@H](N)C(=O)O)cc4)csc23)C(F)(F)F)n1.Cl [Compound 18i, (S)-2-amino-3-(4-(4-((R)-1-(4-chloro-2-(3-methyl-1H-pyrazol-1-yl)phenyl)-2,2,2-trifluoroethoxy)thieno[3,2-d]pyrimidin-7-yl)phenyl)propanoic acid hydrochloride]
Liver microsomal stability (rat), parent remained ([1]; after 30 min incubation, 1 µM): 99% parent remained after 30 min incubation
Liver microsomal stability (human), parent remained [2]: 99% parent remained after 30 min incubation
